Experiments:
Anas platyrhynchos = conditions: chronic/long-term
Apis mellifera = conditions: acute, duration: 48 hours, mortality
Colinus virginianus = conditions: acute, oral, mortality
Daphnia magna = conditions: chronic/long-term; duration: 21 days; reproduction
Folsomia candida = conditions: chronic/long-term; duration: 28 days
Oncorhynchus mykiss = conditions: acute; duration: 96 hours; mortality
Pimephales promelas = conditions: chronic/long-term; duration: 35 days; other
Tagia sp. = conditions: acute; duration: 14 days; mortality
Aphidius rhopalosiphi = assay: LR50; higher = less toxic; conditions: not reported; mortality
Typhlodromus pyri = assay: LR50; higher = less toxic; conditions: not reported; mortality

COC(=O)c1csc(C)c1S(=O)(=O)NC(=O)n1nc(OC)n(C)c1=O [Thiencarbazone-methyl]
NOEL (Anas platyrhynchos): 24 mg/kg-day
LD50 (Apis mellifera; dermal): > 200 µg/piece
LD50 (Apis mellifera; oral, unspecified): > 199 µg/piece
LD50 (Colinus virginianus; diet): > 699 mg/kg-day
LD50 (Colinus virginianus): > 2000 mg/kg-day
NOEC (Daphnia magna): 3.54 mg/L
NOEC (Folsomia candida): 1000 mg/kg
LC50 (Oncorhynchus mykiss): > 104 µg/mL
NOEC (Pimephales promelas): 4.8 mg/L
LD50 (Rattus norvegicus; acute, oral, mortality): > 2000 mg/kg-day
NOEL (Rattus norvegicus; chronic): 946 mg/kg-day
NOAEL (Rattus norvegicus; chronic, duration: 2 years): 22.8 mg/kg-day
NOAEL (Rattus norvegicus; subchronic, duration: 90 days, oral): 24.7 mg/kg-day
LC50 (Tagia sp.): > 1000 mg/kg
LR50 (Aphidius rhopalosiphi): > 45 g/ha
LR50 (Typhlodromus pyri): > 0.45 g/ha
